Like-named read-outs stand apart in the source and are kept apart here.
Legend:
[1] = tested on: adenomatous polyposis coli polyps; assay: Clinical prevention trial of polyp formation in APC patients; type: in vivo, human
Source text: The first clinical trial involved patients with APC using exisulind. In that study, each patient had already had his/her colon removed, except for a small section of colon adjacent the rectum (where the small intestine was attached) to preserve rectal function. However, such a patient commonly forms polyps in the small remaining colonic section, which polyps require periodic removal (e.g., by electrocautery).
That trial where exisulind was selected was a prevention trial designed to evaluate the anti-neoplastic characteristics of the drug by comparing the cumulative number of new polyps formed over twelve months by the drug and placebo groups. Eligible patients were those who form between 9 and 44 polyps per year. Patients were fully ablated (had all polyps removed) at the start of the study, at the end of 6 months and at the end of 12 months. The study enrolled thirty-four eligible patients. […] Based on the median number of polyps produced in the first six months of the study, patients treated with exisulind developed approximately one-third the number of polyps as patients treated with placebo (median values 9 polyps/year and 26 polyps/year, respectively; p=0.013). […]

28-day study in rats = type: in vivo
[2] = Toxicity study in dogs (capsules); type: in vivo
Source text: (§1) Thus, on a single-dose basis, Compound B is not acutely toxic.

[3] = Seven-day dose-range finding study in rats; settings: seven days
PrEC cells = assay: Histone-associated fragmented DNA (apoptosis) in normal prostate epithelial cells; type: cell-based, human; settings: 50 μM, up to 4 days
Protocol: (§2) The androgen-sensitive prostate tumor cell line, LNCaP (from ATCC (Rockville, Md.)) was propagated under standard conditions using […] medium containing 5% fetal calve serum and 2 mM glutamine. Primary prostate epithelial cell cultures (PrEC) derived from normal prostate (from Clonetics Inc. (San Diego, Calif.)) were grown under the same conditions as the tumor cell line except a serum-free medium optimized for the growth of such cultures was used (Clonetics Inc). For the experiments, LNCaP or PrEC cells were seeded in 96 well plates at a density of 10,000 cells per well. After 24 hours, the cells were treated with either vehicle (0.1% DMSO) or 50 μM Compound B (free base) solubilized in DMSO. After various drug treatment times ([…]) the cells were lysed and processed for measurement of histone-associated DNA as an indicator of apoptotic cell death (see, Piazza et al., Cancer Research 57: 2452-2459, 1997).

SW-480 cell line = assay: Tumor cell growth inhibition; type: cell-based, human
Source text: In an alternate embodiment, the method of the present invention involves further determining whether the compound reduces the growth of tumor cells. Various cell lines can be used in the sample depending on the tissue to be tested. For example, these cell lines include: SW-480—colonic adenocarcinoma; HT-29—colonic adenocarcinoma, A-427—lung adenocarcinoma carcinoma; MCF-7—breast adenocarcinoma; and UACC-375—melanoma line; and DU145—prostrate carcinoma. Cytotoxicity data obtained using these cell lines are indicative of an inhibitory effect on neoplastic lesions. These cell lines are well characterized, and are used by the United States National Cancer Institute in their screening program for new anti-cancer drugs.
A compound's ability to inhibit tumor cell growth can be measured using the HT-29 human colon carcinoma cell line obtained from ATCC. […] After six days in culture, the cells are fixed by the addition of cold trichloroacetic acid to a final concentration of 10% and protein levels are measured using the sulforhodamine B (SRB) calorimetric protein stain assay as previously described by Skehan, P., Storeng, R., Scudiero, D., Monks, A., McMahon, J., Vistica, D., Warren, J. T., Bokesch, H., Kenney, S., and Boyd, M. R., “New Colorimetric Assay For Anticancer-Drug Screening,” J. Natl. Cancer Inst. […]
Preferably, an IC50 value is determined and used for comparative purposes. […]

[4] = type: in vivo; settings: for body weight gain: rat, in vivo
Source text: as §1

LNCaP cells = assay: Histone-associated fragmented DNA (apoptosis) in prostate tumor cells; type: cell-based, human; settings: 50 μM Compound B (free base), up to 4 days
Protocol: as §2

[5] = Single, escalating dose human safety study; type: in vivo; settings: oral

Structure (SMILES)	median number of polyps ([1]; entire 12 months of the study) [polyps/year]	median number of polyps ([1]; first six months of the study) [polyps/year]	liver weights (28-day study in rats; 28 days, 2000 mg/kg/day)	thyroid weights (28-day study in rats; 28 days, 2000 mg/kg/day)	clinical observations (28-day study in rats; 28 days, 50, 500 and 2000 mg/kg/day)	oral LD50 [2]	signs of toxicity ([2]; capsules, single 1000 mg/kg)	signs of drug-related effects ([2]; single dose and seven consecutive doses of 1000 mg/kg/day)	signs of toxicity ([3]; 50 mg/kg/day)	treatment-related effects ([3]; 500 mg/kg/day)	treatment-related effects ([3]; 2000 mg/kg/day)	DNA fragmentation (PrEC cells)	IC50 (SW-480 cell line) [nM]	body weight gain ([4]; ip, 1000 mg/kg)	body weight gain ([4]; po, 4000 mg/kg)	intraperitoneal LD50 ([4]; rats)	oral LD50 ([4]; rats) [mg/kg]	signs of toxicity ([4]; rats, single oral doses up to and including 2000 mg/kg, 0.5% carboxy-methylcellulose vehicle)	histone-associated fragmented DNA (LNCaP cells)	side effects [5]
CC1=C(CC(=O)O)c2cc(F)ccc2/C1=C\c1ccc(S(C)(=O)=O)cc1 [exisulind, 5-fluoro-2-methyl-1-(p-methylsulfonylbenzylidene)-3-indenylacetic acid]	18	9																		
CC1=C(CC(=O)NCc2ccccc2)c2cc(F)ccc2/C1=C\c1ccncc1.Cl [Compound B, (Z)-5-fluoro-2-methyl-(4-pyridylidene)-3-(N-benzyl)indenylacetamide hydrochloride]			statistically significant increase in liver weights	statistically significant increases in thyroid weights	no abnormal clinical observations attributed to Compound B	greater than 1000 mg/kg	no signs of toxicity	At no time in either dosing phase were any obvious signs of drug-related effects observed	no observable signs of toxicity	an increase in absolute and relative liver weights in female rats	labored breathing and/or abnormal respiratory sounds, decreased weights gains and food consumption in male rats, and increased liver weights in female rats	did not affect DNA fragmentation	700	reduced body weight gain	body weight gains were slightly reduced	greater than 1000 mg/kg	> 4000	no observable signs of toxicity	significant increase in fragmented DNA was detected after 24 hours of treatment	no significant side effects at any dose
